# Laboratory results as given in patent US8329755B2, “Methods for treating retroviral infections” (Roche Palo Alto LLC, priority 2004, dated 2012).
row,SMILES,melting point [°C]
1,N#Cc1cc(Cl)cc(Oc2c(Cl)ccc(CC(=O)Nc3ccc(S(=O)(=O)NC(=O)CO)cc3Cl)c2F)c1.[Na],178 to 179.5
2,"COc1ccc(CC(=O)Nc2ccc(S(N)(=O)=O)cc2C)cc1Oc1cc(Cl)cc(C#N)c1 [Compound I-73, 2-[3-(3-Chloro-5-cyano-phenoxy)-4-methoxy-phenyl]-N-(2-methyl-4-sulfamoyl-phenyl)-acetamide]",222.3 to 224.3
3,"COc1ccc(CC(=O)Nc2ccc(S(N)(=O)=O)cc2)cc1Oc1cc(C#N)cc(C(F)F)c1 [Compound I-92, 2-[3-(3-Cyano-5-difluoromethyl-phenoxy)-4-methoxy-phenyl]-N-(4-sulfamoyl-phenyl)-acetamide]",213.9 to 214.2
4,"Cc1cc(OCC[C@@H](O)CO)ccc1NC(=O)Cc1ccc(C)c(Oc2cc(Cl)cc(C#N)c2)c1 [Compound I-151, 2-[3-(3-Chloro-5-cyano-phenoxy)-4-methyl-phenyl]-N-[4-((R)-3,4-dihydroxy-butoxy)-2-methyl-phenyl]-acetamide]",104.9 to 106.4
5,"COc1ccc(CC(=O)Nc2ccc(S(N)(=O)=O)cc2Cl)cc1Oc1cc(C#N)ccc1Cl [Compound I-67, 2-[3-(2-Chloro-5-cyano-phenoxy)-4-methoxy-phenyl]-N-(2-chloro-4-sulfamoyl-phenyl)-acetamide]",214.6 to 216.4
6,"Cc1cc(S(N)(=O)=O)ccc1NC(=O)Cc1ccc(C)c(Oc2cc(Cl)cc(C#N)c2)c1F [Compound I-74, 2-[3-(3-Chloro-5-cyano-phenoxy)-2-fluoro-4-methyl-phenyl]-N-(2-methyl-4-sulfamoyl-phenyl)-acetamide]",230 to 232.2
7,"Cc1cc(S(N)(=O)=O)ccc1NC(=O)Cc1ccc(Cl)c(Oc2cc(C#N)cc(C(F)(F)F)c2)c1 [Compound I-89, 2-[4-Chloro-3-(3-cyano-5-trifluoromethyl-phenoxy)-phenyl]-N-(2-methyl-4-sulfamoyl-phenyl)-acetamide]",211.6 to 214.6
8,"CCc1ccc(CC(=O)Nc2ccc(S(N)(=O)=O)cc2)cc1Oc1cc(Cl)cc(C#N)c1 [Compound I-45, 2-[3-(3-Chloro-5-cyano-phenoxy)-4-ethyl-phenyl]-N-(4-sulfamoyl-phenyl)-acetamide]",170.7 to 172.4
9,"N#Cc1cc(C#N)cc(Oc2cc(CC(=O)Nc3ccc(S(N)(=O)=O)cc3)ccc2Cl)c1 [Compound I-2, 2-[4-Chloro-3-(3,5-dicyano-phenoxy)-phenyl]-N-(4-sulfamoyl-phenyl)-acetamide]",218 to 219
10,CCC(=O)NS(=O)(=O)c1ccc(NC(=O)Cc2ccc(C)c(Oc3cc(Cl)cc(C#N)c3)c2F)c(Cl)c1.[Na],158.8 to 162
11,"Cc1cc(S(N)(=O)=O)ccc1NC(=O)Cc1ccc(Cl)c(Oc2cc(C#N)cc(C#N)c2)c1F [Compound I-32, 2-[4-Chloro-3-(3,5-dicyano-phenoxy)-2-fluoro-phenyl]-N-(2-methyl-4-sulfamoyl-phenyl)-acetamide]",248.4 to 250.8
12,"COc1ccc(CC(=O)Nc2ccc(S(N)(=O)=O)cc2Cl)cc1Oc1cc(C#N)cc(C(F)F)c1 [Compound I-94, N-(2-Chloro-4-sulfamoyl-phenyl)-2-[3-(3-cyano-5-difluoromethyl-phenoxy)-4-methoxy-phenyl]-acetamide]",185 to 187.9
13,"CCc1ccc(CC(=O)Nc2ccccc2Cl)cc1Oc1cc(Cl)ccc1C#N [Compound I-18, 2-[3-(5-Chloro-2-cyano-phenoxy)-4-ethyl-phenyl]-N-(2-chloro-phenyl)-acetamide]",168 to 169.9
14,"Cc1ccc(CC(=O)Nc2ccccc2Cl)cc1Oc1cc(F)cc(C#N)c1 [Compound I-12, N-(2-Chloro-phenyl)-2-[3-(3-cyano-5-fluoro-phenoxy)-4-methyl-phenyl]-acetamide]",131.1 to 132.2
15,"COc1ccc(CC(=O)Nc2ccc(S(N)(=O)=O)cc2)cc1Oc1cc(C#N)ccc1Cl [Compound I-65, 2-[3-(2-Chloro-5-cyano-phenoxy)-4-methoxy-phenyl]-N-(4-sulfamoyl-phenyl)-acetamide]",252.3 to 254.3
16,"CCc1ccc(CC(=O)Nc2ccc(S(N)(=O)=O)cc2)cc1Oc1cc(C#N)cc(C#N)c1Cl [Compound I-52, 2-[3-(2-Chloro-3,5-dicyano-phenoxy)-4-ethyl-phenyl]-N-(4-sulfamoyl-phenyl)-acetamide]",119.7 to 123.3
17,Cc1cc(S(=O)(=O)NC(=O)c2cccnc2)ccc1NC(=O)Cc1ccc(Cl)c(Oc2cc(Cl)cc(C#N)c2)c1F.Cl,261.8 to 263.6

# More lines, now with the values ahead:
row,melting point [°C],SMILES
1,137.9 to 138.8,"Cc1ccc(CC(=O)Nc2ncccc2C)cc1Oc1cc(Cl)cc(C#N)c1 [Compound I-225, 2-[3-(3-Chloro-5-cyano-phenoxy)-4-methyl-phenyl]-N-(3-methyl-pyridin-2-yl)-acetamide]"
2,172.2 to 173.4,"Cc1cc(S(=O)(=O)NCC(C)O)ccc1NC(=O)Cc1ccc(C)c(Oc2cc(Cl)cc(C#N)c2)c1 (stereo not drawn) [Compound I-129, 2-[3-(3-Chloro-5-cyano-phenoxy)-4-methyl-phenyl]-N-[4-(2-hydroxy-propylsulfamoyl)-2-methyl-phenyl]-acetamide]"
3,212 to 216.1,"Cc1cc(S(N)(=O)=O)ccc1NC(=O)Cc1ccc(Cl)c(Oc2cc(C#N)cc(C(F)(F)F)c2)c1F [Compound I-120, 2-[4-Chloro-3-(3-cyano-5-trifluoromethyl-phenoxy)-2-fluoro-phenyl]-N-(2-methyl-4-sulfamoyl-phenyl)-acetamide]"
4,177 to 177.9,"COc1ccc(CC(=O)Nc2ccc(S(N)(=O)=O)cc2C)cc1C(=O)c1cc(Br)ccc1Cl [Compound I-264, 2-[3-(5-Bromo-2-chloro-benzoyl)-4-methoxy-phenyl]-N-(2-methyl-4-sulfamoyl-phenyl)-acetamide]"
5,126.8 to 127.7,"O=C(Cc1ccc(Cl)c(Oc2cccc(Cl)c2)c1)Nc1ccccc1 [Compound I-192, 2-[4-Chloro-3-(3-chloro-phenoxy)-phenyl]-N-phenyl-acetamide]"
6,197.2 to 198.1,"O=C(Cc1ccc(Cl)c(C(=O)c2cc(Cl)cc(Cl)c2)c1)Nc1ccccc1Cl [Compound I-247, 2-[4-Chloro-3-(3,5-dichloro-benzoyl)-phenyl]-N-(2-chloro-phenyl)-acetamide]"
7,224.3 to 225.7,"Cc1cc(CC(=O)Nc2ccc(S(N)(=O)=O)cc2Cl)cc(Oc2cc(Cl)cc(C#N)c2)c1C [Compound I-184, 2-[3-(3-Chloro-5-cyano-phenoxy)-4,5-dimethyl-phenyl]-N-(2-chloro-4-sulfamoyl-phenyl)-acetamide]"
8,191.8 to 192.5,"CCc1ccc(CC(=O)Nc2ccc(S(N)(=O)=O)cc2Cl)cc1Oc1cc(C#N)cc(C(F)F)c1 [Compound I-140, N-(2-Chloro-4-sulfamoyl-phenyl)-2-[3-(3-cyano-5-difluoromethyl-phenoxy)-4-ethyl-phenyl]-acetamide]"
9,214.9 to 218.8,"Cc1cc(S(N)(=O)=O)ccc1NC(=O)Cc1ccc(Cl)c(C(=O)c2cc(Cl)ccc2Cl)c1 [Compound I-249, 2-[4-Chloro-3-(2,5-dichloro-benzoyl)-phenyl]-N-(2-methyl-4-sulfamoyl-phenyl)-acetamide]"
10,215.1 to 216.6,"NS(=O)(=O)c1ccc(NC(=O)Cc2cc(Oc3cc(Cl)cc(Cl)c3)c3occc3c2)c(Cl)c1 [Compound I-149, N-(2-Chloro-4-sulfamoyl-phenyl)-2-[7-(3,5-dichloro-phenoxy)-benzofuran-5-yl]-acetamide]"
11,195.1 to 197.7,"Cc1cc(S(=O)(=O)NC2CCC(O)CC2)ccc1NC(=O)Cc1ccc(C)c(Oc2cc(Cl)cc(C#N)c2)c1 (stereo not drawn) [Compound I-121, 2-[3-(3-Chloro-5-cyano-phenoxy)-4-methyl-phenyl]-N-[4-(4-hydroxy-cyclohexylsulfamoyl)-2-methyl-phenyl]-acetamide]"
12,113 to 113.8,"Cc1cc(CC(=O)Nc2ccccc2Cl)cc(C(=O)c2cccc(Cl)c2)c1 [Compound I-262, 2-[3-(3-Chloro-benzoyl)-5-methyl-phenyl]-N-(2-chloro-phenyl)-acetamide]"
13,235.9 to 236.7,"Cc1cc(CC(=O)Nc2ccc(S(N)(=O)=O)cc2)cc(Oc2cc(C#N)ccc2Cl)c1 [Compound I-146, 2-[3-(2-Chloro-5-cyano-phenoxy)-5-methyl-phenyl]-N-(4-sulfamoyl-phenyl)-acetamide]"
14,177 to 181,"Cc1cc(S(=O)(=O)NCCN2CCOCC2)ccc1NC(=O)Cc1ccc(C)c(Oc2cc(Cl)cc(C#N)c2)c1 [Compound I-118, 2-[3-(3-Chloro-5-cyano-phenoxy)-4-methyl-phenyl]-N-[2-methyl-4-(2-morpholin-4-yl-ethylsulfamoyl)-phenyl]-acetamide]"
15,159.9 to 162.8,"CSCCCNS(=O)(=O)c1ccc(NC(=O)Cc2ccc(C)c(Oc3cc(Cl)cc(C#N)c3)c2)c(C)c1 [Compound I-131, 2-[3-(3-Chloro-5-cyano-phenoxy)-4-methyl-phenyl]-N-[2-methyl-4-(3-methylsulfanyl-propylsulfamoyl)-phenyl]-acetamide]"
16,179.9 to 182,"Cc1ccc(CC(=O)Nc2ccc(S(C)(=O)=O)cc2Cl)c(F)c1Oc1cc(C#N)cc(C(F)F)c1 [Compound I-112, N-(2-Chloro-4-methanesulfonyl-phenyl)-2-[3-(3-cyano-5-difluoromethyl-phenoxy)-2-fluoro-4-methyl-phenyl]-acetamide]"
17,137.5 to 138.4,"Cc1cc(OC[C@@H](O)CO)ccc1NC(=O)Cc1ccc(C)c(Oc2cc(Cl)cc(C#N)c2)c1 [Compound I-150, 2-[3-(3-Chloro-5-cyano-phenoxy)-4-methyl-phenyl]-N-[4-((S)-2,3-dihydroxy-propoxy)-2-methyl-phenyl]-acetamide]"
18,196.4 to 198.7,"N#Cc1cccc(Oc2cc(CC(=O)Nc3ccc(S(N)(=O)=O)cc3)cc3ccoc23)c1 [Compound I-144, 2-[7-(3-Cyano-phenoxy)-benzofuran-5-yl]-N-(4-sulfamoyl-phenyl)-acetamide]"
19,184.8 to 186,"Cc1cc(CC(=O)Nc2ccc(S(N)(=O)=O)cc2C)cc(Oc2cc(Cl)cc(C#N)c2)c1 [Compound I-142, 2-[3-(3-Chloro-5-cyano-phenoxy)-5-methyl-phenyl]-N-(2-methyl-4-sulfamoyl-phenyl)-acetamide]"
